Reference: patent US20130123287A1, “CONTROL AGENT FOR SOFT ROT AND CONTROL METHOD FOR THE SAME” (ISHIHARA SANGYO KAISHA, LTD., priority 2010, published 2013)

Tests used:
[1] = test system: bacteria causing the soft rot (Erwinia carotovora); experiment: Inhibition test of growth of bacteria causing soft rot, Reference Test Example 4; format: cell-based; conditions: for formed colonies (growth state), grade: PSA medium, 27 degrees Celsius, 2 days; for inhibition of growth of Erwinia carotovora (in words): active ingredient concentration of 1,000 ppm
Source text: An inhibition test of the growth of bacteria causing the soft rot was done, when a control agent was directly applied to the bacteria causing the soft rot. A given volume of each pesticide of kresoxim-methyl (STROBY DF [trade name] manufactured by BASF), thiophanate methyl (Topsin M WP [trade name], manufactured by Nippon Soda Co., Ltd), boscalid (Cantus DF [trade name] manufactured by BASF), procymidone (Sumilex WP [trade name] manufactured by Sumitomo Chemical Agro Co., Ltd.) and streptomycin (Mycin Wettable powder [trade name] manufactured by Hokko Chemical Industry Co., Ltd.) was added together with a suspension of the bacteria causing the soft rot (Erwinia carotovora) to a preliminarily dissolved PSA culture medium (55 degrees Celsius) for subsequent thorough agitation, which was then spread on a plate for culturing at 27 degrees Celsius for 2 days, to examine the growth state. Subsequently, the formed colonies were examined according to the following three grades. • +: at the same level as the level of non-treated lot. Plus or minus: apparently less than the colonies of the non-treated lot. • −: almost no colonies observed.

[2] = test system: soft rot of Chinese cabbage; experiment: Test for controlling soft rot of Chinese cabbage, Example 4 / Comparative Example 4 (field, cultivar Ouraku 60); format: in vivo; conditions: 150 L/10 a sprayed onto planting holes before planting, 49 days after start
Source text: Frequency of the disease=[sigma(number of plants with the onset of the disease at each severity level*index of the onset of the disease)/(plants examined*4)]*100
Disease control value=[1-(frequency of the disease in the treated lot/frequency of the disease in the non-treated lot)]*100
• 0: No onset • 1: Onset in some of outer leaves (shippable) • 2: Onset in outer leaves and some of head leaves (by removing damaged parts, the resulting cabbage can be shipped as small cabbage but is ranked as grade B). • 3: Most of head leaves are inflicted with the onset of the disease or with severer damages (not shippable) • 4: Whole cabbage plant is inflicted with the onset of the disease and is dead.
442 g/lkresoxim-methyl (STROBY FLOWABLE [trade name], manufactured by BASF) was adjusted to 500 g ai/10a (0.5 g/m^2, 1131 ml Product/10a) as the amount of the active ingredient and to 150 L/10a as the volume of diluent water.
70% w/w thiophanate methyl (Topsin M WF [trade name], manufactured by Nippon Soda Co., Ltd.) was adjusted to 1000 g ai/10a (1 g/m^2, 1429 g Product/10a) as the amount of the active ingredient and to 150 L/10a as the volume of diluent water.
50% w/w boscalid (Cantus DF [trade name], manufactured by BASF) was adjusted to 500 g ai/10a (0.5 g/m^2; 1000 g Product/10a) as the amount of the active ingredient and to 150 L/10a as the volume of diluent water.
50% w/w procymidone (Sumilex WP [trade name], manufactured by Sumitomo Chemical Agro) was adjusted to 500 g ai/10a (0.5 g/m^2, 1000 g Product/10a) as the amount of the active ingredient and to 150 L/10a as the volume of diluent water.
400 g/l iprodione (Rovral 500 Aqua [trade name], manufactured by Bayer Crop Science Co., Ltd.) was adjusted to 500 g ai/10a (0.5 g/m^2, […] Product/10a) as the amount of the active ingredient and to 150 L/10a as the volume of diluent water.
200 g/l fludioxonil (Seibia FLOWABLE [trade name], manufactured by Syngenta Japan K.K.) was adjusted to 500 g ai/10a (0.5 g/m^2, 2500 ml Product/10a) as the amount of the active ingredient and to 150 L/10a as the volume of diluent water.
400 g/l mepanipyrim (Flupika PLOWABLE [trade name], manufactured by Nippon Soda Co., Ltd.) was adjusted to 500 g ai/10a (0.5 g/m^2, 1250 ml Product/10a) as the amount of the active ingredient and to 150 L/10a as the volume of diluent water.
After spreading an agricultural mulch-sheet and opening planting holes (diameter of about 5 cm) for permanent planting through the mulch-sheet, the spray solutions prepared as described above were sprayed onto the planting holes such that the amount of treated active ingredient of each spray solution was 0.5 g/m^2 (150 L per 10a), followed by air-drying; subsequently, seedlings of Chinese cabbage (cultivar: Ouraku 60) grown for 4 weeks in cell mold trays (128 holes/nursery box) were planted such that 30 seedlings were planted in each test lot having an area of 2.5 m^2 with two replications.
Preparation was performed by diluting a chemical solution (Agrimycin WP100 [trade name] manufactured by Pfizer) containing oxytetracycline at 1.5% and streptomycin sulfate salt at 18.8% with water to 1/1500.
In a field spread with the agricultural mulch-sheet, Chinese cabbage seedlings (cultivar: Ouraku 60) grown by the same method as in Example 4 were planted by the same method as in Example 4, for spraying the spray solution prepared above in (1) (at each spray volume of 300 L/10a) twice (28 days and 42 days after the planting of the seedlings) on the stems and leaves.
49 days after the start of the tests, all the plants in each lot were examined about the severity level of the disease to assess the frequency of the disease and the disease control value. Herein, the frequency of the disease and the disease control value were determined in the same manner as described above. Because soft rot is a disease with damages hardly controlled, herein, even a chemical at the level C determined by the tests of the effects can practically be used.

[3] = test system: bacteria causing the soft rot (Erwinia carotovora); experiment: Inhibition test of growth of bacteria causing soft rot, Reference Test Example 6; format: cell-based; conditions: for formed colonies (growth state), grade: PSA medium, 27 degrees Celsius, 3 days; for inhibition of growth of Erwinia carotovora (in words): active ingredient concentration of 1,000 ppm
Source text: (§1) An inhibition test of the growth of bacteria causing the soft rot was done, when a control agent was directly applied to the bacteria causing the soft rot. A given volume of each pesticide of fludioxonil (Seibia FL [trade name] manufactured by Syngenta Japan K.K.), iminoctadine albesilate salt (Bellkute WP [trade name], manufactured by Nippon Soda Co., Ltd.), iprodione (Rovral WP [trade name] manufactured by Bayer Crop Science Co., Ltd.), and streptomycin (Mycin Wettable powder [trade name] manufactured by Hokko Chemical Industry Co., Ltd.) was added together with a suspension of the bacteria causing the soft rot (Erwinia carotovora) to a preliminarily dissolved PSA culture medium (55 degrees Celsius) for subsequent thorough agitation, which was then spread on a plate for culturing at 27 degrees Celsius for 3 days, to examine the growth state. Subsequently, the formed colonies were examined according to the following three grades. • +: at the same level as the level of non-treated lot.
(§2) Plus or minus: apparently less than the colonies of the non-treated lot. • −: almost no colonies observed.

[4] = test system: bacteria causing the soft rot (Erwinia carotovora); experiment: Inhibition test of growth of bacteria causing soft rot, Reference Test Example 5; format: cell-based; conditions: for formed colonies (growth state), grade: PSA medium, 27 degrees Celsius, 2 days
Description: as §1, with “mepanipyrim (Flupika” for “fludioxonil (Seibia”, “by” for “by Syngenta Japan K.K.), iminoctadine albesilate salt (Bellkute WP [trade name], manufactured by”, “Ltd.)” for “Ltd.), iprodione (Rovral WP [trade name] manufactured by Bayer Crop Science Co., Ltd.),”, “2” for “3”
as §2

O=C(Nc1ccccc1-c1ccc(Cl)cc1)c1cccnc1Cl [Boscalid, 2-chloro-N-(4′-chlorobiphenyl-2-yl)nicotinamide]
formed colonies (growth state), grade ([1]; 100 ppm active ingredient): +, + | formed colonies (growth state), grade ([1]; 500 ppm active ingredient): +, + | formed colonies (growth state), grade ([1]; 1000 ppm active ingredient): +, + | inhibition of growth of Erwinia carotovora (in words) [1]: never inhibited the growth | Determination of effect ([2]; 500 g ai/10 a): C (C: Effective at low level (21 to 40 disease control value))

N#Cc1c[nH]cc1-c1cccc2c1OC(F)(F)O2 [Fludioxonil, 4-(2,2-difluoro-1,3-benzodioxol-4-yl)pyrrole-3-carbonitrile]
formed colonies (growth state), grade ([3]; 100 ppm active ingredient): +, + | formed colonies (growth state), grade ([3]; 500 ppm active ingredient): +, + | formed colonies (growth state), grade ([3]; 1000 ppm active ingredient): +, + | inhibition of growth of Erwinia carotovora (in words) [3]: never inhibited the growth | Determination of effect ([2]; 500 g ai/10 a): C (C: Effective at low level (21 to 40 disease control value))

CC(C)NC(=O)N1CC(=O)N(c2cc(Cl)cc(Cl)c2)C1=O [Iprodione, 3-(3,5-dichlorophenyl)-N-isopropyl-2,4-dioxoimidazolizine-1-carboxamide]
formed colonies (growth state), grade ([3]; 100 ppm active ingredient): +, + | formed colonies (growth state), grade ([3]; 500 ppm active ingredient): +, + | formed colonies (growth state), grade ([3]; 1000 ppm active ingredient): +, + | inhibition of growth of Erwinia carotovora (in words) [3]: never inhibited the growth | Determination of effect ([2]; 500 g ai/10 a): B (B: Effective (41 to 60 disease control value))

CC#Cc1cc(C)nc(Nc2ccccc2)n1 [Mepanipyrim, N-(4-methyl-6-prop-1-ynylpyrimidin-2-yl)aniline]
formed colonies (growth state), grade ([4]; 100 ppm active ingredient): +, + | formed colonies (growth state), grade ([4]; 500 ppm active ingredient): +, + | formed colonies (growth state), grade ([4]; 1000 ppm active ingredient): +, + | inhibition of growth of Erwinia carotovora (in words) ([4]; active ingredient concentration of 1,000 ppm): never inhibited the growth | Determination of effect ([2]; 500 g ai/10 a): B (B: Effective (41 to 60 disease control value))

CC12CC1(C)C(=O)N(c1cc(Cl)cc(Cl)c1)C2=O (stereo not drawn) [Procymidone, N-(3,5-dichlorophenyl)-1,2-dimethylcyclopropane-1,2-dicarboximide]
formed colonies (growth state), grade ([1]; 100 ppm active ingredient): +, + | formed colonies (growth state), grade ([1]; 500 ppm active ingredient): +, + | formed colonies (growth state), grade ([1]; 1000 ppm active ingredient): +, + | inhibition of growth of Erwinia carotovora (in words) [1]: never inhibited the growth | Determination of effect ([2]; 500 g ai/10 a): A (A: Highly effective (61 or larger disease control value))

COC(=O)NC(=S)Nc1ccccc1NC(=S)NC(=O)OC [Thiophanate methyl, dimethyl=4,4′-(o-phenylene)bis(3-thioallophanate)]
formed colonies (growth state), grade ([1]; 100 ppm active ingredient): +, + | formed colonies (growth state), grade ([1]; 500 ppm active ingredient): +, + | formed colonies (growth state), grade ([1]; 1000 ppm active ingredient): +, + | inhibition of growth of Erwinia carotovora (in words) [1]: never inhibited the growth | Determination of effect ([2]; 1000 g ai/10 a): B (B: Effective (41 to 60 disease control value))
